In US20170107207A1, “AMINOPYRAZOLONE DERIVATIVE” (DAIICHI SANKYO COMPANY, LIMITED, priority 2014, published 2017):

Key:
[1] = biological target: T1, TIP48/TIP49 complex (Homo sapiens, UniProt Q9Y230+Q9Y265); experiment: ATPase assay of TIP48/TIP49 complex (ADP-Glo); format: biochemical; settings: concentration at which the ATPase activity was inhibited by 50%
T1 construct: made in house; host or cells: E. coli
Excerpt: The ATPase activity of the TIP48/TIP49 complex can be measured by use of an ATPase assay described below in Test Examples 1 and 2. The ATPase activity of the TIP48/TIP49 complex can be measured, as described below in the Test Examples, for example, by using recombinant human TIP48 and TIP49 proteins (hereinafter, referred to as rTIP48 and rTIP49) and ATP in the presence or absence of a test compound and measuring the amount of ADP formed through hydrolysis by the ATPase activity of the TIP48/TIP49 complex, using ADP-Glo. Alternatively, the ATPase activity of the TIP48/TIP49 complex can be measured by a method described in, for example, J. Mol. Biol. 366, 172-179 (2007).
An ATPase assay of a TIP48/TIP49 complex was conducted using rTIP48 and rTIP49. Human TIP48 and TIP49 DNAs were purchased from Open Biosystems. Human TIP48 and TIP49 cDNAs cloned by PCR using the purchased DNAs were each integrated into plasmids for expression in E. coli and expressed in E. coli to obtain rTIP48 and rTIP49.
A test compound was dissolved at 10 mM using DMSO. The solution was diluted to 10 concentrations as 4-fold serial dilutions from 10 mM using DMSO.
A 2×assay buffer (100 mM Tris-HCl, pH 7.5, 100 mM NaCl, 40 mM MgCl2, 2 mM DTT, 20 μM ATP, and 0.2 mg/mL BSA) was dispensed at 24.5 μL/well to a 384-well assay plate.
Test compound solutions were dispensed thereto at 1 μL/well. Subsequently, the solution in each well was mixed using a plate mixer.
rTIP48 and rTIP49 were diluted to a concentration of 50 μg/mL using sterilized water. The diluted solution was dispensed at 24.5 μL/well to the 384-well assay plate. Subsequently, the solution in each well was mixed using a plate mixer (final concentration: 24.5 μg/mL) (concentration of each test compound solution: 200 μM, 50 μM, 12.5 μM, 3.12 μM, 0.78 μM, 0.20 μM, 0.049 μM, 0.012 μM, 0.003 μM, and 0.0007 μM; DMSO concentration: 2%).
After the mixing using the plate mixer, the assay plate was left standing at room temperature for 1.5 hours.
5 μL of the solution in each well was transferred to a white assay plate, and ADP-Glo Reagent from ADP-Glo Kinase Assay (Promega Corp., catalog No. V9101) was dispensed thereto at 5 μL/well. After completion of the reaction, the plate was left standing at room temperature for 40 minutes. Kinase Detection Reagent was further dispensed thereto at 5 μL/well, and the plate was left standing at room temperature for 30 minutes. Then, luminescence intensity was measured using a plate reader.
The ATPase inhibitory activity was calculated according to the expression given below.
The luminescence intensity of a well supplemented with the test compound and the TIP48/TIP49 complex was defined as A. The luminescence intensity of a well supplemented with only the TIP48/TIP49 complex was defined as B. The luminescence intensity of a well supplemented with neither the test compound nor the TIP48/TIP49 complex was defined as C. The ratio between the test compound-supplemented group and the test compound-nonsupplemented group (T/C value) was determined according to the following calculation expression:
The dose-response curve was calculated using GraphPad Prism 4 from the concentration of each of the serially diluted test compounds and the ATPase inhibitory activity (%) at this concentration.

[2] = system: human lymphoma cell line RAMOS cells; experiment: Cell growth inhibition test using RAMOS cell, ATP assay (CellTiter-Glo); format: cell-based; settings: cultured 3 days, 50% growth inhibition concentration
Procedure: A cell growth inhibition test was carried out by treating human lymphoma cell line RAMOS cells with a test compound for a given period and then counting the number of viable cells by MTT assay or CellTiter-Glo Luminescent Cell Viability Assay (manufactured by Promega Corp.; hereinafter, referred to as ATP assay).
RAMOS cells were inoculated at 4000 cells/40 μL/well to a 384-well plate containing the compound prepared in advance at predetermined concentrations. The cells thus inoculated were cultured at 37° C. for 3 days under 5% CO2. In order to measure a cell survival rate, CellTiter-Glo Reagent was added in an amount corresponding to 1/4 of the amount of the culture solution at the day of cell inoculation and at the final culture date and stirred at room temperature for 2 minutes. Then, luminescence intensity was measured using a plate reader. The cell survival rate was calculated according to the expression given below.
The number of viable cells and luminescence intensity have been confirmed to correlate with each other. Therefore, the rate of cell growth was calculated according to the following expression: Rate of cell growth (T/C %) of a test compound-supplemented well=100×[(B−C)/(A−C)] wherein A represents the luminescence intensity (final culture date) of a test compound-free well; B represents the luminescence intensity (final culture date) of a test compound-containing well; and C represents the luminescence intensity (day of cell inoculation) of a well at the start of contact of the cells with the test compound.
T/C % at each concentration of the test compound was determined. The concentration at which the test compound offered 50% growth rate was calculated as a GI50 value from the growth rates at two points interpolating 50% and the concentrations, and is shown in Table 56.

T1 sequence (Q9Y230 whole entry): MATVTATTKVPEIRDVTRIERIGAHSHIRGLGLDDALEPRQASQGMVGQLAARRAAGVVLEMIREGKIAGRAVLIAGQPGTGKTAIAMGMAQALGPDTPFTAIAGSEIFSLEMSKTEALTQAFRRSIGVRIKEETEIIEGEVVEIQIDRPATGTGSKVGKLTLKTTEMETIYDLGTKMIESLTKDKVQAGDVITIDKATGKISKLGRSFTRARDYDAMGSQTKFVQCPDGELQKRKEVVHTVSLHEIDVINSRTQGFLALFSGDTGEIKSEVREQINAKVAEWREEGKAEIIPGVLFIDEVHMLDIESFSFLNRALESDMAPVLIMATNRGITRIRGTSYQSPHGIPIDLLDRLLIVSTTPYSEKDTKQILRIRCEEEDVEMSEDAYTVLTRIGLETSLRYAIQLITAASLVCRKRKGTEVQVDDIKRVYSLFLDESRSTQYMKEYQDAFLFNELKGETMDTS
T1 sequence (Q9Y265 whole entry): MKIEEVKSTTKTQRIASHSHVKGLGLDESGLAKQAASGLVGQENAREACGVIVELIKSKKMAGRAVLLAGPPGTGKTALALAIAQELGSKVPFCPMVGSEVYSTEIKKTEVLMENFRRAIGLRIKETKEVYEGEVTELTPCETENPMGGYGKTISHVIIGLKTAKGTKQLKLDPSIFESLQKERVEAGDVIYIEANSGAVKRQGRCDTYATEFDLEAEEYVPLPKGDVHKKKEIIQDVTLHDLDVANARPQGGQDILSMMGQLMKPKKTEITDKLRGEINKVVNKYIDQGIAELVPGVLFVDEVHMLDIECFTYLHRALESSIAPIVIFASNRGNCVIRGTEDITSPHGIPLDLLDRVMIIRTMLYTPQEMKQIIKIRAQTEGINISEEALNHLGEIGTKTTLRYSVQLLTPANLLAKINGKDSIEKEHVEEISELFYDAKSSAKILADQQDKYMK

| SMILES | IC50 [1] [µM] | GI50 ([2]; Homo sapiens, Ramos, 72 h) [µM] | GI50 [2] [µM] |
| --- | --- | --- | --- |
| CCOc1ncc(Br)cc1C(=O)NCC(C)(C)CC(=O)Nc1c(CCN(C)C)n(C)n(-c2ccccc2)c1=O [Example 30, 5-Bromo-N-[4-({5-[2-(dimethylamino)ethyl]1-methyl-3-oxo-2-phenyl-2,3-dihydro-1H-pyrazol-4-yl}amino)-2,2-dimethyl-4-oxobutyl]-2-ethoxypyridine-3-carboxamide] | 0.094 | 0.48 |  |
| Cc1cc2cc(Cl)cc(C(=O)NCC(C)(C)CC(=O)Nc3c(CC(C)(C)N)n(C)n(-c4ccccc4)c3=O)c2o1 [Example 58, N-(4-{[5-(2-amino-2-methylpropyl)-1-methyl-3-oxo-2-phenyl-2,3-dihyro-1H-pyrazol-4-yl]amino}-2,2-dimethyl-4-oxobutyl)-5-chloro-2-methylbenzofuran-7-carboxamide] | 0.058 | 0.11 |  |
| [2H]C([2H])([2H])n1c(CCN(C)C)c(NC(=O)CC(C)(C)CNC(=O)c2cc(Cl)ccc2OCC)c(=O)n1-c1ccccc1 [Example 43, 5-Chloro-N-[4-({3-[2-(dimethylamino)ethyl]-5-oxo-1-phenyl-2-(trideuteriomethyl)pyrazol-4-yl}amino)-2,2-dimethyl-4-oxobutyl]-2-ethoxybenzamide] | 0.06 | 0.19 |  |
| CCOc1cc(F)c(Cl)cc1C(=O)NCC(C)(C)CC(=O)Nc1c(CCCCN(C)C)n(C)n(-c2ccccc2)c1=O [Example 89, 5-Chloro-N-[4-({5-[4-(dimethylamino)butyl]-1-methyl-3-oxo-2-phenyl-2,3-dihydro-1H-pyrazol-4-yl}amino)-2,2-dimethyl-4-oxobutyl]-2-ethoxy-4-fluorobenzamide] | 0.09 | 0.17 |  |
| COCOc1cc(F)c(Cl)cc1C(=O)NCC(C)(C)CC(=O)Nc1c(CCN(C)C)n(C)n(-c2ccccc2)c1=O [Example 29, 5-Chloro-N-[4-({5-[2-(dimethylamino)ethyl]1-methyl-3-oxo-2-phenyl-2,3-dihydro-1H-pyrazol-4-yl}amino)-2,2-dimethyl-4-oxobutyl]-4-fluoro-2-(methoxymethoxy)benzamide] | 0.048 | 0.15 |  |
| COCOc1ccc(Cl)cc1C(=O)NCC(C)(C)CC(=O)Nc1c(COC)n(C)n(-c2ccccc2)c1=O [Example 115, 5-Chloro-2-(methoxymethoxy)-N-(4-{[5-(methoxymethyl)-1-methyl-3-oxo-2-phenyl-2,3-dihydro-1H-pyrazol-4-yl]amino}-2,2-dimethyl-4-oxobutyl)benzamide] | 0.041 | 0.13 |  |
| CCOc1ncc(Cl)cc1C(=O)NCC(C)(C)CC(=O)Nc1c(CC(C)(C)N(C)C)n(C)n(-c2ccccc2)c1=O [Example 57, 5-Chloro-N-[4-({5-[2-(dimethylamino)-2-methylpropyl]-1-methyl-3-oxo-2-phenyl-2,3-dihydro-1H-pyrazol-4-yl}amino)-2,2-dimethyl-4-oxobutyl]-2-ethoxypyridine-3-carboxamide] | 0.07 | 0.19 |  |
| CCOc1cc(F)c(Cl)cc1C(=O)NCC(C)(C)CC(=O)Nc1c(CCN(C)C)n(CC)n(-c2ccccc2)c1=O [Example 41, 5-Chloro-N-[4-({5-[2-(dimethylamino)ethyl]-1-ethyl-3-oxo-2-phenyl-2,3-dihydro-1H-pyrazol-4-yl}amino)-2,2-dimethyl-4-oxobutyl]-2-ethoxy-4-fluorobenzamide] | 0.02 | 0.098 |  |
| CCOc1cc(F)c(Cl)cc1C(=O)NCC(C)(C)CC(=O)Nc1c(CCN(C)CCF)n(C)n(-c2ccccc2)c1=O [Example 37, 5-Chloro-2-ethoxy-4-fluoro-N-{4-[(5-{2-[2-fluoroethyl(methyl)amino]ethyl}-1-methyl-3-oxo-2-phenyl-2,3-dihydro-1H-pyrazol-4-yl)amino]-2,2-dimethyl-4-oxobutyl}benzamide] | 0.038 | 0.12 |  |
| CCOc1ncc(Cl)cc1C(=O)NCC(C)(C)CC(=O)Nc1c(C(C)NC)n(C)n(-c2ccccc2)c1=O (single isomer, unassigned; (-)) [Example 86, (−)-5-Chloro-N-[2,2-dimethyl-4-({1-methyl-5-[1-(methylamino)ethyl]-3-oxo-2-phenyl-2,3-dihydro-1H-pyrazol-4-yl}amino)-4-oxobutyl]-2-ethoxypyridine-3-carboxamide] | 0.09 |  | 0.18 |
| COCOc1cc(Cl)c(Cl)cc1C(=O)NCC(C)(C)CC(=O)Nc1c(C(C)CN(C)C)n(C)n(-c2ccccc2)c1=O (centres unmarked) [Example 75, 4,5-Dichloro-N-[4-({5-[2-(dimethylamino)-1-methylethyl]-1-methyl-3-oxo-2-phenyl-2,3-dihydro-1H-pyrazol-4-yl}amino)-2,2-dimethyl-4-oxobutyl]-2-(methoxymethoxy)benzamide] | 0.099 | 0.27 |  |
| CCOc1ncc(Cl)cc1NC(=O)CC(C)(C)CC(=O)Nc1c(C(C)OC)n(C)n(-c2ccccc2)c1=O (centres unmarked) [Example 126, N-(5-Chloro-2-ethoxy-3-pyridyl)-N′-[5-(1-methoxyethyl)-1-methyl-3-oxo-2-phenyl-2,3-dihydro-1H-pyrazol-4-yl]-3,3-dimethylpentanediamide] | 0.056 | 0.58 |  |
| CCOc1ccc(Cl)cc1C(=O)NCC(C)(C)CC(=O)Nc1c(C[C@@H](C)N(C)C)n(C)n(-c2ccccc2)c1=O [Example 48, 5-Chloro-N-[4-({5-[(2R)-2-(dimethylamino)propyl]-1-methyl-3-oxo-2-phenyl-2,3-dihydro-1H-pyrazol-4-yl}amino)-2,2-dimethyl-4-oxobutyl]-2-ethoxybenzamide] | 0.061 | 0.16 |  |
| [2H]C([2H])([2H])n1c(CCN(C)C)c(NC(=O)CC(C)(C)CNC(=O)c2cc(Br)cnc2OCC)c(=O)n1-c1ccccc1 [Example 44, 5-Bromo-N-[4-({3-[2-(dimethylamino)ethyl]-5-oxo-1-phenyl-2-(trideuteriomethyl)-2,3-dihydro-1H-pyrazol-4-yl}amino)-2,2-dimethyl-4-oxobutyl]-2-ethoxypyridine-3-carboxamide] | 0.15 | 0.47 |  |
| CCOc1ccc(Cl)cc1C(=O)NCC(C)(C)CC(=O)Nc1c(CCC(F)(F)F)n(C)n(-c2ccccc2)c1=O [Example 158, 5-Chloro-N-(2,2-dimethyl-4-{[1-methyl-3-oxo-2-phenyl-5-(3,3,3-trifluoropropyl)pyrazol-4-yl]amino}-4-oxobutyl)-2-ethoxybenzamide] | 0.033 | 0.31 |  |
| CCOc1ncc(Cl)cc1C(=O)NCC(C)(C)CC(=O)Nc1c(C(C)NC)n(C)n(-c2ccccc2)c1=O (single isomer, unassigned) [Example 85, (+)-/(−)-5-Chloro-N-[2,2-dimethyl-4-({1-methyl-5-[1-(methylamino)ethyl]-3-oxo-2-phenyl-2,3-dihydro-1H-pyrazol-4-yl}amino)-4-oxobutyl]-2-ethoxypyridine-3-carboxamide] | 0.11 | 0.3 |  |
